From patent publication US8178506B2, “Oligomeric compounds and compositions for use in modulation of small non-coding RNAs” (Regulus Therapeutics Inc., priority 2003, dated 2012)
In the oligonucleotide strings, read from the 5' end, every base follows the letter of its sugar. An asterisk marks phosphorothioate; unmarked linkages are phosphodiester. Other units and linkages are bracketed, terminal groups are in braces. A string of capitals states the bases alone. e = 2'-O-(2-methoxyethyl) (MOE); [5mC] = 5-methylcytosine; d = 2'-deoxy (DNA)

Columns and labels:
Type in all cases: cell-based, human
HSL = HSL mRNA expression in adipocytes (real-time PCR); conditions: for HSL: Table 20, adipocyte differentiation assay as in Example 13
Glut4 = Glut4 mRNA expression in adipocytes (real-time PCR); conditions: for Glut4: Table 20, adipocyte differentiation assay as in Example 13
adipocytes = experiment: Triglyceride accumulation assay in adipocytes; conditions: for TG: Table 20, adipocyte differentiation assay as in Example 13
PPARγ = PPARγ mRNA expression in adipocytes (real-time PCR); conditions: for PPAR gamma: Table 20, adipocyte differentiation assay as in Example 13
aP2 = aP2 mRNA expression in adipocytes (real-time PCR); conditions: for aP2 mRNA: Table 75; for AP2: Table 20, adipocyte differentiation assay as in Example 13
[1] = Table 18, differentiating adipocytes, control = treatment with ISIS 342673
[2] = differentiating adipocytes transfected with oligomeric compound, Table 75
[3] = differentiating adipocytes transfected with oligomeric compound
[4] = Table 17, differentiating adipocytes, control = treatment with ISIS 342673

Substance | HSL mRNA (HSL; [1]) | HSL mRNA (HSL; [2]) | GLUT4 mRNA (Glut4; [1]) | GLUT4 mRNA (Glut4; [2]) | TG (triglyceride accumulation) (adipocytes; [1]) | PPAR gamma mRNA (PPARγ; [1]) | PPAR gamma mRNA (PPARγ; [2]) | AP2 mRNA (aP2; [1]) | aP2 mRNA (aP2; [3]) | TG (triglyceride accumulation) (adipocytes; [2]) | further results
341804 (antisense ATCTGCACTGTCAGCACTTT; all 2'-MOE, all phosphorothioate, methylation of C not given here) [compound 341804] | 71.6 percentage of control | 75 percentage of untreated control (UTC) | 73.6 percentage of control | 62 percentage of untreated control (UTC) | 60.9 percentage of control | 74.1 percentage of control | 71 percentage of untreated control (UTC) | 70.8 percentage of control | 78 percentage of untreated control (UTC) | – | –
328115 (antisense eA*eG*eA*eA*eG*eG*eT*eG*eG*eG*eG*eA*eG*e[5mC]*eA*eG*e[5mC]*eG*eT*e[5mC]*eA) [compound 328115] | 89.0 percentage of control | 75 percentage of untreated control (UTC) | 132.0 percentage of control | 84 percentage of untreated control (UTC) | 108.7 percentage of control | 95.8 percentage of control | 80 percentage of untreated control (UTC) | 80.0 percentage of control | 74 percentage of untreated control (UTC) | 53 percentage of untreated control (UTC) | –
341805 (antisense ACCCTTATCAGTTCTCCGTCCA; all 2'-MOE, all phosphorothioate, methylation of C not given here) [compound 341805] | 81.8 percentage of control | 86 percentage of untreated control (UTC) | 88.2 percentage of control | 74 percentage of untreated control (UTC) | 78.1 percentage of control | 80.4 percentage of control | 77 percentage of untreated control (UTC) | 81.9 percentage of control | 90 percentage of untreated control (UTC) | – | –
328114 (antisense eA*eA*eT*e[5mC]*eT*e[5mC]*eA*eT*eT*eT*eT*e[5mC]*eA*eT*eA*e[5mC]*eT*eT*eG*e[5mC]*eA) [compound 328114] | 93.3 percentage of control | – | 114.9 percentage of control | – | 117.3 percentage of control | 89.3 percentage of control | – | 94.4 percentage of control | – | – | HSL mRNA (HSL; [3]): 134 percentage of untreated control (UTC); GLUT4 mRNA (Glut4; [3]): 116 percentage of untreated control (UTC); TG (triglyceride accumulation) (adipocytes; [3]): 110 percentage of untreated control (UTC); PPAR gamma mRNA (PPARγ; [3]): 106 percentage of untreated control (UTC); AP2 mRNA (aP2; [3]): 123 percentage of untreated control (UTC)
328117 (antisense eT*e[5mC]*e[5mC]*eA*e[5mC]*eA*eA*eA*eG*e[5mC]*eT*eG*eA*eA*e[5mC]*eA*eT*eG*eT*e[5mC]*eT) [compound 328117] | – | 18 percentage of untreated control (UTC) | – | 13 percentage of untreated control (UTC) | – | – | 42 percentage of untreated control (UTC) | – | 28 percentage of untreated control (UTC) | 16 percentage of untreated control (UTC) | HSL mRNA (HSL; [4]): 61.7 percentage of control; GLUT4 mRNA (Glut4; [4]): 68.1 percentage of control; TG (triglyceride accumulation) (adipocytes; [4]): 55.0 percentage of control; PPAR gamma mRNA (PPARγ; [4]): 64.1 percentage of control; AP2 mRNA (aP2; [4]): 65.4 percentage of control
340927 (antisense eT*eG*eA*eG*e[5mC]*dT*dA*d[5mC]*dA*dG*dT*dG*d[5mC]*dT*dT*e[5mC]*eA*eT*e[5mC]*eT*e[5mC]*eA) [compound 340927] | – | – | – | – | – | – | – | – | – | – | HSL (HSL): 0.73; Glut4 (Glut4): 0.54; TG (adipocytes): 0.65; PPAR gamma (PPARγ): 0.36; AP2 (aP2): 0.77
341803 (antisense CCACACACTTCCTTACATTCCA; all 2'-MOE, all phosphorothioate, methylation of C not given here) [compound 341803] | 75.5 percentage of control | 79 percentage of untreated control (UTC) | 86.8 percentage of control | 73 percentage of untreated control (UTC) | 85.9 percentage of control | 71.2 percentage of control | 68 percentage of untreated control (UTC) | 77.3 percentage of control | 85 percentage of untreated control (UTC) | – | –
338664 (antisense e[5mC]*eA*eG*eA*e[5mC]*eT*e[5mC]*e[5mC]*e[5mC]*eA*eA*e[5mC]*eT*eG*eA*e[5mC]*e[5mC]*eA*eG*eA) [compound 338664] | – | – | – | – | – | – | – | – | – | – | HSL (HSL): 0.76; Glut4 (Glut4): 1.81; TG (adipocytes): 1.42; PPAR gamma (PPARγ): 0.86; AP2 (aP2): 1.01
341806 (antisense GCCAATATTTCTGTGCTGCTA; all 2'-MOE, all phosphorothioate, methylation of C not given here) [compound 341806] | 73.4 percentage of control | 77 percentage of untreated control (UTC) | 69.4 percentage of control | 58 percentage of untreated control (UTC) | 83.2 percentage of control | 72.6 percentage of control | 70 percentage of untreated control (UTC) | 75.8 percentage of control | 83 percentage of untreated control (UTC) | – | –
328111 (antisense eT*e[5mC]*e[5mC]*eG*eA*eG*eT*e[5mC]*eG*eG*eA*eG*eG*eA*eG*eG*eA*eG*eG*eA*eA) [compound 328111] | 69.5 percentage of control | 77 percentage of untreated control (UTC) | 59.6 percentage of control | 50 percentage of untreated control (UTC) | 101.9 percentage of control | 74.9 percentage of control | 65 percentage of untreated control (UTC) | 71.5 percentage of control | 79 percentage of untreated control (UTC) | 65 percentage of untreated control (UTC) | –
328105 (antisense e[5mC]*e[5mC]*eT*e[5mC]*eA*eA*eT*eT*eA*eT*eT*eG*eG*eA*eA*eA*eT*e[5mC]*eA*e[5mC]*eA) [compound 328105] | 94.2 percentage of control | 95 percentage of untreated control (UTC) | 94.2 percentage of control | 75 percentage of untreated control (UTC) | 93.1 percentage of control | 93.3 percentage of control | 85 percentage of untreated control (UTC) | 88.2 percentage of control | 102 percentage of untreated control (UTC) | 82 percentage of untreated control (UTC) | –
327912 (antisense eA*eA*e[5mC]*eT*eA*eT*eA*e[5mC]*eA*eA*eT*e[5mC]*eT*eA*e[5mC]*eT*eA*e[5mC]*e[5mC]*eT*e[5mC]*eA) [compound 327912] | 90.6 percentage of control | 95 percentage of untreated control (UTC) | 89.0 percentage of control | 79 percentage of untreated control (UTC) | 107.4 percentage of control | 76.9 percentage of control | 78 percentage of untreated control (UTC) | 90.1 percentage of control | 101 percentage of untreated control (UTC) | 112 percentage of untreated control (UTC) | –
